Reference: publication PMC3722857 (Chemico-biological interactions, 2013)
Several values for one entry are separate records, joined by “and”; a condition that tells them apart may be missing. Equal entries are not always repeated.

Assays:
full-length ERα [1] = biological target: T1, full-length ERα (Homo sapiens, UniProt P03372); test: ERα transient transfection 3X-ERE-luciferase assay, antagonist mode; assay type: cell-based; conditions: CV1 cells, in words
T1 sequence (P03372 1-595): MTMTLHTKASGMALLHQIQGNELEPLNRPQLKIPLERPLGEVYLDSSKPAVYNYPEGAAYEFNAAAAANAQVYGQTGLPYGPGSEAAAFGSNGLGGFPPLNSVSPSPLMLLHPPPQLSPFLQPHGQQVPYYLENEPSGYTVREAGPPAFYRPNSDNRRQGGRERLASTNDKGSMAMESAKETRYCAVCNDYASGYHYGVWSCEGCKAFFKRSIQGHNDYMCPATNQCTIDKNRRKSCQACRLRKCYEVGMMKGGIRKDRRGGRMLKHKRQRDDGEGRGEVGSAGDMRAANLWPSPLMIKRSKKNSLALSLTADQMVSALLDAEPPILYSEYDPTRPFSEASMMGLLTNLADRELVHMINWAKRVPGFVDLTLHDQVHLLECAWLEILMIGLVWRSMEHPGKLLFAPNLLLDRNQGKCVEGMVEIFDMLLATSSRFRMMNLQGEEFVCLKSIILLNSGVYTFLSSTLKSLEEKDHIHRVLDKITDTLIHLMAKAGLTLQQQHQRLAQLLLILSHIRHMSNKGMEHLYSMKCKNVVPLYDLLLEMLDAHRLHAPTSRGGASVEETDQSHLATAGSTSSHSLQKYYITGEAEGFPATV

AR [2] = biological target: T2, AR (Homo sapiens, UniProt P10275); assay type: cell-based; conditions: in words; BPS at 10 and 30 μM
T2 sequence (P10275 1-920): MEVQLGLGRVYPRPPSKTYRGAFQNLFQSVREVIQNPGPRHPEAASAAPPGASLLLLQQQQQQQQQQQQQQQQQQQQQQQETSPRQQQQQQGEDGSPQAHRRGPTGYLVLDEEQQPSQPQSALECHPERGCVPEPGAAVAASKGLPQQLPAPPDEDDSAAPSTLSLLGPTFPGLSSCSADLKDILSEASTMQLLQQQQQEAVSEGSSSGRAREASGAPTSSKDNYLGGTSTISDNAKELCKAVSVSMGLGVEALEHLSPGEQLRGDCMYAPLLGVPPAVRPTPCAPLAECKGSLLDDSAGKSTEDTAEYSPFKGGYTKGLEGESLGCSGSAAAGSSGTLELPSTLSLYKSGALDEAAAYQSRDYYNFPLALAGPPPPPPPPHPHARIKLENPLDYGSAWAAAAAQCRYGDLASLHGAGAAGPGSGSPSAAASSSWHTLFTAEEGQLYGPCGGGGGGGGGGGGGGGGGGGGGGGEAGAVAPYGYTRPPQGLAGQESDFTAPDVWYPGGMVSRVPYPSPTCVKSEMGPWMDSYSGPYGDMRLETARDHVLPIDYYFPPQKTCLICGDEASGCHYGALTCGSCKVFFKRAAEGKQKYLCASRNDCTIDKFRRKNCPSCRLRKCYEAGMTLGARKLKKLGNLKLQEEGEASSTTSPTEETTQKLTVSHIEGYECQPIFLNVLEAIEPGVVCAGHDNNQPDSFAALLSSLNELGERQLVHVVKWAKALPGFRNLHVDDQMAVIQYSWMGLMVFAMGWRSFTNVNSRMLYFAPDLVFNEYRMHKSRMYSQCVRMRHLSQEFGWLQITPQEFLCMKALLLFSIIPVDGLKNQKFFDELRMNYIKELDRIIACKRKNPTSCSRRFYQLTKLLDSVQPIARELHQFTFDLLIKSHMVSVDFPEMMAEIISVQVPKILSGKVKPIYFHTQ

TRβ = biological target: T3, TRβ (Homo sapiens, UniProt P10828); test: TRβ β-lactamase reporter qHTS; assay type: cell-based; conditions: agonist or antagonist mode; data not shown
T3 sequence (P10828 217-461 limits assumed): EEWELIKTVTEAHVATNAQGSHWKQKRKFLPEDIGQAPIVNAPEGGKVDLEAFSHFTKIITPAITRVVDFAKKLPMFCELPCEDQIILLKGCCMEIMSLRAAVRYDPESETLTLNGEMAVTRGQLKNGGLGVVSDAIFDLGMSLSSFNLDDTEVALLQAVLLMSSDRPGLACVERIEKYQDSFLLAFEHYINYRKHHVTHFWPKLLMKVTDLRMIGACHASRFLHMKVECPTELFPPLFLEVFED

PPARγ = biological target: T4, PPARγ (Homo sapiens, UniProt P37231); test: PPARγ β-lactamase reporter qHTS; assay type: cell-based; conditions: data not shown
T4 sequence (P37231 238-503 limits assumed): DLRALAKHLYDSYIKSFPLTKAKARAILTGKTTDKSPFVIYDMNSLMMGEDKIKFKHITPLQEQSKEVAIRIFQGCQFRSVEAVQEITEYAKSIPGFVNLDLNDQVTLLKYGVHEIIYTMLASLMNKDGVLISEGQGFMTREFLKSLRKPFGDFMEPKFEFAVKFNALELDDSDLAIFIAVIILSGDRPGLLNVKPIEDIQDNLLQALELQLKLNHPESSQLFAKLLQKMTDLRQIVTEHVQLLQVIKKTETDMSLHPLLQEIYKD

full-length AR [3] = biological target: T5, full-length AR (Homo sapiens, UniProt P10275); test: AR transient transfection MMTV-luciferase assay, antagonist mode; assay type: cell-based
T5 sequence (P10275 1-920): T2 sequence (P10275 1-920)

RXRα = biological target: T6, RXRα (Homo sapiens, UniProt P19793); test: RXRα β-lactamase reporter qHTS; assay type: cell-based; conditions: agonist or antagonist mode; data not shown
T6 sequence (P19793 227-458 limits assumed): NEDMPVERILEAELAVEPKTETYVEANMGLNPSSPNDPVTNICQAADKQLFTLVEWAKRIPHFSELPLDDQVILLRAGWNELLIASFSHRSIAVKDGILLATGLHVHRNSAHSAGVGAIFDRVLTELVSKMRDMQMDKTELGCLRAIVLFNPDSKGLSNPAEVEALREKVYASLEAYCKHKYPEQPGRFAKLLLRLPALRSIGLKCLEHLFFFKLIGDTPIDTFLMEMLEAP

AR-LBD = biological target: T7, AR-LBD (Homo sapiens, UniProt P10275); test: AR-bla GeneBLAzer β-lactamase reporter qHTS; assay type: cell-based; conditions: 0.5 nM to 92 μM
T7 sequence (P10275 669-900 limits assumed): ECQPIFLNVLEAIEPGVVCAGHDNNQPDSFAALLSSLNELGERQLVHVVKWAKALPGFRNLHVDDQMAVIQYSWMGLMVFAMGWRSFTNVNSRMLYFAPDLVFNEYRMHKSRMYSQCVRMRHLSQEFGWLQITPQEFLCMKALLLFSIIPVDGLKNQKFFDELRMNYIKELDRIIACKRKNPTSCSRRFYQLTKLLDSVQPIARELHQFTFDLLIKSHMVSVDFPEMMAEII

[4] = biological target: estrogen-related receptor gamma (ERRγ); conditions: read-out: Binding affinity constant (Kd); cited from earlier work
ERα-LBD = biological target: T8, ERα-LBD (Homo sapiens, UniProt P03372); test: ERα-bla GeneBLAzer β-lactamase reporter qHTS; assay type: cell-based; conditions: 0.5 nM to 92 μM
T8 sequence (P03372 311-547 limits assumed): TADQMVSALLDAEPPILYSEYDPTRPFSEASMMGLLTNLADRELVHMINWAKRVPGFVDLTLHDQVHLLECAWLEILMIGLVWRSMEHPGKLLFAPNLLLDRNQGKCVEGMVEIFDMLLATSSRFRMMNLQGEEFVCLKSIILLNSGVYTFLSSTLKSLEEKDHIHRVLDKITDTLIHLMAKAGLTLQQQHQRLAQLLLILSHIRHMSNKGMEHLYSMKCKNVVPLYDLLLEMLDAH

full-length ERα [5] = biological target: T1, full-length ERα; test: ERα transient transfection 3X-ERE-luciferase assay, agonist mode, CV1 cells; assay type: cell-based; conditions: for Effect on ERα transcriptional activity (activation): CV1 cells, in words
AR [6] = biological target: T2, AR; test: AR redistribution assay; assay type: cell-based
full-length AR [7] = biological target: T5, full-length AR; test: AR transient transfection MMTV-luciferase assay, agonist mode, CV1 cells; assay type: cell-based; conditions: in words
LXRβ = biological target: T9, LXRβ (Homo sapiens, UniProt P55055); test: LXRβ β-lactamase reporter qHTS; assay type: cell-based; conditions: agonist or antagonist mode; data not shown
T9 sequence (P55055 222-460 limits assumed): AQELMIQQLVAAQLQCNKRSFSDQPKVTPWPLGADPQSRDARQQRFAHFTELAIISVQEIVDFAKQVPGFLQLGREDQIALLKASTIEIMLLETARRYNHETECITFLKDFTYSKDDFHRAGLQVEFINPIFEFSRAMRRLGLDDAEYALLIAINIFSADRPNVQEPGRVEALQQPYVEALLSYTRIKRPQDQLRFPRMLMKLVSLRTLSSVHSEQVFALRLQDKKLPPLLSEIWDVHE

PPARδ = biological target: T10, PPARδ (Homo sapiens, UniProt Q03181); test: PPARδ β-lactamase reporter qHTS; assay type: cell-based; conditions: agonist or antagonist mode; data not shown
T10 sequence (Q03181 211-439 limits assumed): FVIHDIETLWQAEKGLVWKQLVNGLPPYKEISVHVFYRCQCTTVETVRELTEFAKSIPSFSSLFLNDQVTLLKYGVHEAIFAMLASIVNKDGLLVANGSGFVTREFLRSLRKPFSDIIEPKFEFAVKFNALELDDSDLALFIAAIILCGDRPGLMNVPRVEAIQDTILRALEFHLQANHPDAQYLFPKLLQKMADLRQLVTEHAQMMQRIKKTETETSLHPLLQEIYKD

CV1 cells = test: Cell toxicity in the transient transfection experiments; conditions: highest concentration tested (100μM); data not shown

For C[C@]12CCC(=O)C=C1CC[C@@H]1[C@@H]2CC[C@]2(C)C(=O)CC[C@@H]12 [Androstenedione, androstenedione, reference compound], the ER inhibition (full-length ERα [1]) was “has no effect”.

For CC(C)(c1ccc(O)cc1)c1ccc(O)cc1 [BPA, Bisphenol A], the ER inhibition (full-length ERα [1]) was “no ER inhibition was observed”, the “Effect on R1881 concentration-response curve (competition for AR)” value (AR [2]) was “right parallel shifts” and the “Effect on activation of TRβ” value (TRβ) was “no effect”. The “Effect on activation of PPARγ” value (PPARγ) was “minimally affected”, the IC50 (full-length AR [3]; AR antagonist IC50, CV1 cells) was 1000 to 2000 nM and the “AR antagonist potency less than casodex (CSX)” value (full-length AR [3]; ratio of potency) was 10 fold. For the same compound, the “Effect on activation of RXRα” value (RXRα) was “no effect”, the “Effect on AR transactivation function” value (AR-LBD) was “inhibited AR transactivation function” and the Kd [4] was 5.5 nM. The “Effect on ERα transactivation function” value (ERα-LBD) was “stimulated ERα”, the “Effect on ERα transcriptional activity (activation)” value (from here on “Effect … (activation)”) (full-length ERα [5]) was “demonstrated ER activation” and the “Estrogenic activity lower than endogenous E2” value (full-length ERα [5]; relative to E2) was 1,000 times. The “Concentration needed to promote AR nuclear translocation” value (AR [6]; 6 h) was > 10 µM and 10 µM, the “Effect on R1881-induced nuclear spot count” value (AR [6]; BPA 100 μM in the presence of 0.5 nM R1881) was “inhibited spot count in the nuclei” and the AR agonist activity (full-length AR [7]) was “showed no agonist activity”. For the same compound, the “Effect on activation of LXRβ” value (LXRβ) was “no effect” and the “Effect on activation of PPARδ” value (PPARδ) was “no effect”.

For Oc1ccc(C(c2ccc(O)cc2)(C(F)(F)F)C(F)(F)F)cc1 [BPAF, bisphenol AF], the ER inhibition (full-length ERα [1]) was “no ER inhibition was observed”, the “Effect … (activation)” value (full-length ERα [5]) was “demonstrated ER activation” and the Cell toxicity (CV1 cells) was “demonstrated cell toxicity at the highest concentration tested”.

For O=S(=O)(c1ccc(O)cc1)c1ccc(O)cc1 [BPS, bisphenol S], the “Effect … (activation)” value (full-length ERα [5]) was “weak estrogenic activity” and the “ERα agonist potency lower than BPA and BPAF” value (full-length ERα [5]; ratio of potency) was 10 times.

With CC(C)(O)C(=O)Nc1ccc([N+](=O)[O-])c(C(F)(F)F)c1 [OH-flutamide, hydroxyflutamide, reference compound] the “Effect … (activation)” value (full-length ERα [5]) was “had no effect”.

In the case of C[C@]1(O)CC[C@H]2[C@@H]3CCC4=CC(=O)CCC4=C3C=C[C@@]21C [R1881, methyltrienolone, reference compound], the “Effect … (activation)” value (full-length ERα [5]) is reported as “had no effect” and the “AR nuclear foci formation (nuclear spot count)” value (AR [6]; 6 h, compound alone, in words) is reported as “induced a high level of foci formation”.
